We go through 5 compounds from article PMC7893915, “Assessing cross-resistance within the pyrethroids in terms of their interactions with key cytochrome P450 enzymes and resistance in vector populations” (Parasites & Vectors, 2021).

One data set deals with CYP6P3. Conditions: Incubation time 2h; mean ± SD; ref [38], [41]; cited from earlier work.
The target in the next data set is T1, CYP6Z3 (Anopheles gambiae, UniProt Q86LT6, H411Y/S209G/W396L).
T1 sequence (Q86LT6 1-492 S209G/W396L/H411Y): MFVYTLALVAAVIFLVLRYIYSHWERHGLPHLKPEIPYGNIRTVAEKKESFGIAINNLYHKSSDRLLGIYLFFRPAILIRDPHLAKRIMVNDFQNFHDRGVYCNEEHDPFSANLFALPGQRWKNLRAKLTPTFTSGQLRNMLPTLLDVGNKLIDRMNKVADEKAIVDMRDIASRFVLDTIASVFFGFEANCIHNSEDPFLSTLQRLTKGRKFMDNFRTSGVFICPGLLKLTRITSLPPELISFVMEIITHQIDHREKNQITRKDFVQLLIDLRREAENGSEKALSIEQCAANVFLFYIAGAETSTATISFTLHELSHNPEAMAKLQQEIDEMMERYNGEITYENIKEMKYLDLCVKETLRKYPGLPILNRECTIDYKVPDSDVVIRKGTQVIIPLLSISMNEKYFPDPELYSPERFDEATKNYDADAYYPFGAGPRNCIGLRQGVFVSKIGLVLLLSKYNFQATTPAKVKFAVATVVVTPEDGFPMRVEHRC
T1 sequence (Q86QH5 1-679 partner): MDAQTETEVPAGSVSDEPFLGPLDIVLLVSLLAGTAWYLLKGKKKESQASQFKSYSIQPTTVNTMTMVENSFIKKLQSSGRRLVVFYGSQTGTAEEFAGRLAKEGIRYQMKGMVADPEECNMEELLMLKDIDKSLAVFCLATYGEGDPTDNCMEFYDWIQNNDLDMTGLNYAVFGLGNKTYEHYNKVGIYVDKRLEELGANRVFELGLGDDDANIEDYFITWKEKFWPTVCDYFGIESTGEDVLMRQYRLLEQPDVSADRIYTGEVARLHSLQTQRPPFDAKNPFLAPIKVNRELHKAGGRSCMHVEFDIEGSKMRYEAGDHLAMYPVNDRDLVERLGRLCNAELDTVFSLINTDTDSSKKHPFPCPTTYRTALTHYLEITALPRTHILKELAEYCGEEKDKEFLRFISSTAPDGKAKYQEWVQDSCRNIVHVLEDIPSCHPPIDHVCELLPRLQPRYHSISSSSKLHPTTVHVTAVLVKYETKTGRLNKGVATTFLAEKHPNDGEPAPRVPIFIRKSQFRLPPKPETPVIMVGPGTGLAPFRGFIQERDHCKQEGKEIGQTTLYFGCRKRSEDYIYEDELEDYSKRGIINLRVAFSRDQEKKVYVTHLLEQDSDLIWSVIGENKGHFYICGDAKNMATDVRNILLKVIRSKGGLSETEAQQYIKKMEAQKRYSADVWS
The data set is described as follows: Inhibition screening of pyrethroids, diethoxyfluorescein, CYP6Z3. The data set is classed as biochemical. The source says: Cytochrome P450 inhibition assays using fluorogenic probe substrates have become commonplace in drug discovery screening cascades and are a rapid method of screening for insecticide interactions with mosquito P450s to predict insecticide binding, metabolism, cross-resistance and synergism. In this study, the half maximal inhibitory concentration (IC50), which provides a value for inhibition of each P450 by each pyrethroid (also referred to as ‘binding affinity’), and the percentage depletion, which gives a value for metabolism of each pyrethroid by each P450 (also referred to as vulnerability to metabolic attack), were both included as parameters to establish a P450s structural activity relationship model. This model was used to understand both the chemistry of the pyrethroids and the interaction with mosquito P450s that function as monooxygenases in metabolic resistance, to predict cross-resistance liabilities in vivo. […] A low percentage depletion indicates low metabolism of the pyrethroid, which means that it may be less vulnerable to resistance mediated by P450s.
In addition, inhibition activity data for these pyrethroids exposed to CYP6Z3 from the An. gambiae Kisumu strain were also generated (Additional file 1).
1. Preparation of An. gambiae CYP6Z3 and cloning
Total RNA was extracted with Arcturus PicoPure Kit (Applied Biosystems, USA) from ten adult An. gambiae mosquitoes from the Kisumu strain [1]. Complementary DNA was prepared using Superscript III (Invitrogen) with an oligo (dT)20 primer and used as a template for amplifying full -length AgCyp6z3 with KOD DNA polymerase (Merk Chemicals) . The gene-specific primers used in these high -fidelity PCRs (Table S1) were designed according to the reference An. gambiae PEST CYP6Z3 genome sequence (Accession number AY193727) The PCR product was ligated into pGEM T-easy vector (Promega) and sequenced on both strands. Consistent with the high frequency of polymorphism in An. gambiae P450s [2](Martin Nature Ref) there were 36 single nucleotide polymorphism (SNPs) compared with the reference sequence, of which three produced amino acid changes, S209G, W396L, and H411Y. For expression, the ompA leader sequence (ompA) was engineered onto the amino - terminus of the AgCyp6z3 gene to direct the P450 into the E. coli […] during expression as previously described. The ompA-leader was fused to AgCyp6z3 cDNA in frame with AgCyp6z3 initiation codon by fusion PCR using High fidelity Phusion polymerase (Scientific). The ompA AgCyp6z3 fusion was flanked at the 5′ and 3′ ends with NdeI and EcoR1, respectively for ligation into NdeI/EcoRI linearised pB13 (pCWori+).
Table S1. Primers used for amplification of CYP6Z3 and in vitro functional characterisation […]
ompA+2 Forward […]
ompA+2 CYP6Z3 fusion […]
2. Preparation of membranes expressing P450 and AgCPR
To express functional P450, AgCyp6z3 cloned into pB13 plasmid was co-transformed into E. coli JM109 cells with An. gambiae NADPH-cytochrome P450 reductase (AgCPR-pACYC). The P450 and the AgCPR were previously fused with ompA and pelB leader sequences respectively to direct the expressed proteins to the inner bacterial periplasm in order to form functional monooxygenase complex. For P450 production, 200 mL E. coli cultures in Terrific Broth were incubated at 21°C with shaking at 120 RPM for 18–24 h after induction with 1 mM IPTG. Following expression, E. coli membranes containing CYP6Z3 were isolated and P450 and AgCPR content measured as previously described. Samples were stored in aliquots of 100 µL at −80°C. An. gambiae cytochrome b5 was prepared as described previously to supplement enzyme reactions at an 8:1 M ratio, b5: P450 [4].
3. Inhibition screening of pyrethroids.
Inhibition screening of pyrethroid inhibitors and IC50 calculations carried out according Yunta et al. […]

A further data set concerns CYP6P2. The following applies: read-out: IC50 CYP6P2, inhibition of diethoxyfluorescein metabolism, cited from earlier work.
The next data set deals with CYP6P9a. Conditions: read-out: IC50 CYP6P9a, inhibition of diethoxyfluorescein metabolism, cited from earlier work.
[1] abbreviates: footnote b, ref Yunta et al. 2019[10].
[2] abbreviates: footnote a, ref Yunta et al. 2016[8].

pIC50: −log10 of the molar value. Where two headings read alike, the source gives them in different places.

By pIC50 is commonly meant the IC50 on a negative log10 scale, so that one unit is a factor of ten. On to `Cc1c(COC(=O)[C@@H]2[C@H](/C=C(\Cl)C(F)(F)F)C2(C)C)cccc1-c1ccccc1` (racemic) [Bifenthrin, bifenthrin], for which, in the data set with CYP6P3, the “% Insecticide depletion CYP6P3” value is listed as 76.7 ± 0.3%. The pIC50 on CYP6Z3 was 4.77; in the data set on CYP6P2 (setting [1]), 4.97; in the data set on CYP6P9a (setting [1]), 5.07.
Regarding `CC1(C)[C@H](C(=O)O[C@H](C#N)c2cccc(Oc3ccccc3)c2)[C@@H]1/C=C(\Cl)C(F)(F)F` (racemic) [λ-Cyhalothrin, λ-cyhalothrin], the “% Insecticide depletion CYP6P3” value in the data set on CYP6P3 was 83.3 ± 15.4%. Further, the pIC50 is 5.48 on CYP6Z3, 5.32 with CYP6P2 (setting [1]) and 5.43 in the data set with CYP6P9a (setting [1]).
As to `CC1(C)[C@H](C(=O)O[C@H](C#N)c2cccc(Oc3ccccc3)c2)[C@@H]1C=C(Br)Br` [Deltamethrin, deltamethrin], the pIC50 was 5.47 at CYP6Z3, 5.30 in the data set with CYP6P2 (setting [2]) and 5.59 in the data set with CYP6P9a (setting [2]).
On to `CCOc1ccc(C(C)(C)COCc2cccc(Oc3ccccc3)c2)cc1` [Etofenprox, etofenprox], for which, in the data set on CYP6P3, the “% Insecticide depletion CYP6P3” value was 99.8 ± 0.3%. Also, the pIC50 at CYP6Z3 was 5.32; with CYP6P2 (setting [1]), 5.33; in the data set with CYP6P9a (setting [1]) it was 5.09.
Consider `CC1(C)C(C=C(Cl)Cl)C1C(=O)OCc1cccc(Oc2ccccc2)c1` (stereo not shown) [Permethrin, permethrin], for which the “% Insecticide depletion CYP6P3” value in the data set with CYP6P3 is 100.0 ± 0.0%. Also, the pIC50 was 5.43 at CYP6Z3, 5.07 in the data set with CYP6P2 (setting [2]) and 5.24 in the data set with CYP6P9a (setting [2]).
